Measured values taken from patent US9745257B2, “Phenyl-guanidine derivatives” (Universidad Nacional de Quilmes, priority 2011, dated 2017).
Like-named read-outs stand apart in the source and are kept apart here. Each block holds one molecule with its values, some of them ahead of it.

Key:
[1] = test system: LN229 (human glioblastoma); assay: Proliferation assay (MTT), LN229 cells; type: cell-based; conditions: LN-229, 72 h, 10% FBS
Procedure: (§1) Cells were maintained in monolayer culture with the corresponding media, supplemented with 5% fetal bovine serum (FBS) previously inactivated with heat, 2 mM glutamine and […] gentamicine.
(§2) The cells were treated for 72 hours in the presence of FBS 10% with different doses of the compounds in 96 wells at a 2500 cell/well density. The cell growth was estimated by MTT test, for which to the cell monolayers was added MTT, incubated and resuspended in DMSO. Finally, the number of cells was estimated by measuring the absorbance values at 570 nm.
(§3) Compound (65) as a representative example of Rac1 inhibitor compounds according to the present invention was tested in cell proliferation assays performed with following cancer cell lines F3II (murine mammary carcinoma), 3LL (murine lung carcinoma), LN229 (human glioblastoma), MCF7 (human mammary carcinoma), H125 (human lung carcinoma), PC3 (human prostate adenocarcinoma) and MDA-MB-231 (human mammary carcinoma).
as §2, with “trated” for “treated”

[2] = test system: F3II (murine mammary carcinoma); assay: Proliferation assay (MTT), F3II cells; type: cell-based; conditions: Mus musculus, 72 h, 10% FBS
Procedure: as §1, §2, §3

[3] = test system: MDA-MB-231 (human mammary carcinoma); assay: Proliferation assay (MTT), MDA-MB-231 cells; type: cell-based; conditions: 72 h, 10% FBS
Procedure: as §1, §2, §3

Rac1 = biological target: T1, Rac1 (Homo sapiens, UniProt P63000); assay: Pull-Down assay of intracellular active Rac levels (Rac-GTP) in LN229 cells; type: cell-based; conditions: 10 μM, EGF 100 ng/ml, FIG. 3
T1 construct: endogenous in cells; host or cells: LN229 (human glioblastoma)
Procedure: This assay consists in the determination of inhibition power of the compounds of the invention over the intracellular active Rac1 levels (Rac-GTP). For determining the levels of Rac-GTP, the “Pull-Down” assay was used, which is based in the conformation bond of Rac-GTP to the p21 domain of PAK1 protein, which is the direct effector of Rac-GTP (Wanf H. et al.; J. Biol. Che. 2002, 277: 4541-4550).
LN229 cells (human glioblastoma) were seeded in 6-well cell culture plaques and were kept in absence of FBS for 48 hours (starvation). Afterwards, they were treated with compounds (25) and (65) and they were stimulated for 15 minutes with EGF (100 ng/ml), washed with phosphate buffered saline (PBS) at low temperature and lysated in a buffer containing 8 μg of the fusion protein GST-PBD, […] Tris-HCl, pH 7.5, […] DTT, 5 mM MgCl2, 150 mM NaCl, 0.5% NP-40, 5 mM β-glicerophosphate and protease inhibitors (5 μg/ml 4-(2-aminoethyl)bencenesulfonyl fluoride, 5 μg (ml leupeptin, 5 μg/ml aprotinin and 1 μg/ml pepstatin A). The lysates were centrifuged at 14,000×g (4° C., 10 min) and then incubated with Glutation-Agarose Beads (GAB, Amersham Pharmacia) previously fitted with GST-Pak at 4° C. for 1 hour. After washing, the GABs were boiled for 5 minutes in loading buffer. […] The total Rac levels were analyzed in a similar way from aliquots taken from the cell lysate.

[4] = test system: F3II mammary carcinoma cells; assay: Antimetastatic effect, metastatic lung colonization by F3II cells in mice; type: in vivo; conditions: 25 mg/kg/day i.p., days 0 to 21, F3II cells i.v., BALB/c mice, FIG. 9
Procedure: Specific pathogen-free female BALB/c inbred mice from UNLP (Buenos Aires, Argentina), with an age of 8-10 weeks and a average weight of 20 g, were used. They were housed in plastic cages under standard conditions and had access to rodent chow and water ad libitum. On the designated day 0 of the experiment, F3II mammary carcinoma cells were injected into the lateral tail vein of unanesthetized mice at a concentration of 2×10^5 viable cells/0.3 ml DMEM/mice. At day 21, animals were sacrificed by cervical dislocation and necropsied. To investigate the presence of lung metastasis, lungs were removed, fixed in Bouin's solution and the number of surface nodules was determined under a dissecting microscope.
(§4) To study the effect of compound (25) on metastatic lung colonization, mice were injected i.p at daily doses of 25 mg/kg body weight from days 0 to 21.

[5] = Tolerability and animal weight in mice; type: in vivo; conditions: adult female BALB/c mice, 25 mg/kg/day i.p.
Procedure: as §4

[6] = test system: MCF7 (human mammary carcinoma); assay: Proliferation assay (MTT), MCF7 cells; type: cell-based; conditions: 72 h, 10% FBS, average of three experiments
Procedure: as §1, §2, §3

[7] = test system: 3LL (murine lung carcinoma); assay: Proliferation assay (MTT), 3LL cells; type: cell-based; conditions: Mus musculus, 72 h, 10% FBS, average of three experiments
Procedure: as §1, §2, §3

[8] = test system: H125 (human lung carcinoma); assay: Proliferation assay (MTT), H125 cells; type: cell-based; conditions: NCI-H125, 72 h, 10% FBS, average of three experiments
Procedure: as §1, §2, §3

[9] = test system: PC3 (human prostate adenocarcinoma); assay: Proliferation assay (MTT), PC3 cells; type: cell-based; conditions: PC-3, 72 h, 10% FBS, average of three experiments
Procedure: as §1, §2, §3

Rac-Tiam complex = biological target: T2, Rac-Tiam complex (Homo sapiens, UniProt P63000); assay: Precipitation affinity of Tiam with recombinant GST-Rac (Western Blot anti Tiam1); type: binding; conditions: Western Blot anti Tiam1 vs. control, FIG. 2
T2 construct: GST
Procedure: Compounds (65) and (25) were tested in order to determine its inhibition power over the interaction Rac-Tiam. Thus, the precipitation affinity of Tiam with the recombinant protein GST-Rac was evaluated in presence of compound (65).

[10] = test system: LN229 human glioblastoma cells; assay: Polymerization of actin filaments by immunofluorescence in LN229 cells; type: cell-based; conditions: LN229 starved 24 h, treated 1 hour, EGF stimulated, FIG. 5
Procedure: The effect of compound (65) over the polymerization of actin filaments was evaluated by immunofluorescence with conjugated faloidine with the fluorochrome AlexaFluor (Invitrogen). LN229 human glioblastoma cells were starvated for 24 hours, treated with compound (65) for 1 hour, and stimulated with EGF. […] An accurate sign of cellular boundaries is observed in all cells due to the cortical actin marking.

[11] = test system: LN229 human glioblastoma cells; assay: Trans-well migration assay; type: cell-based; conditions: 10 μM, 50 μM and 100 μM, 24 hours, FIG. 6
Procedure: Cell motility is a key process in the invasion and tumor metastasis processes and it is closely regulated by the Rho-GTPases family, particularly by Rac. This assay consists in the determination of the antimigration effect of compound (65) on LN229 human glioblastoma cells.
The cell migration in vitro was measured by the trans-well migration assay, wherein LN229 cells previously treated with different concentrations (10 μM, 50 μM and 100 μM) of compound (65) and serum deprived were placed on the upper layer of a cell permeable membrane of a trans-well plaque. Following an incubation perior of 24 hours, the cells migrated through the 8 μm pores of the membrane to the lower layer.

LN229 cells = assay: Cell cycle effect by flow cytometry; type: cell-based, human
Procedure: The effect of compound (65) on the cell cycle was studied by flow citometry. It is known that Rac1 GTPase is related with transcription of molecules such as cyclin D1, which are required to progress from G1 phase to S phase. Inhibition of Rac1 induces cell arrest in G0-G1 phase.
LN229 cells synchronized in G0-G1 phase and stimulated for 24 hours with FBS were treated with compound (65).

[12] = read-out: IC50 (μM) tested in LN229 cells (Table 2)

Structure (SMILES): Cc1ccccc1NC(=N)Nc1ccccc1C(F)(F)F [(64), N-(2-methylphenyl)-N′-[2-(trifluoromethyl)phenyl]guanidine]
- IC50 [1, 12]: 175 µM
- melting point: 129 °C

Structure (SMILES): Cc1cc(C)cc(NC(=N)Nc2ccccc2C(F)(F)F)c1 [Compound (25), N-(3,5-dimethylphenyl)-N′-[2-(trifluoromethyl)phenyl]guanidine]
- IC50 ([2]; read-out: IC50 values, F3II (Table 3)): 36 µM
- IC50 [1, 12]: 73 µM
- IC50 ([3]; read-out: IC50 values, MDA-MB-231 (Table 3)): 40 µM
- Effect over the intracellular active Rac levels (Rac-GTP) (Rac1): inhibitory effect
- Reduction of the formation of metastatic lung colonies [4]: about 35%
- Changes in animal weight compared to the control group [5]: no significant changes in animal weight
- Tolerability [5]: well tolerated

Structure (SMILES): Cc1cc(C)nc(NC(=N)Nc2ccccc2C(F)(F)F)n1 [Compound (65), N-[4,6-bis(methyl)pyrimidin-2-yl]-N′-[2-(trifluoromethyl)phenyl]guanidine]
- IC50 ([2]; average of three experiments, read-out: IC50 values, F3II): 61 µM
- IC50 [6]: 44 µM
- IC50 [7]: 68 µM
- IC50 [8]: 127 µM
- IC50 ([1]; average of three experiments, read-out: IC50 values, LN229): 73 µM
- IC50 [9]: 138 µM
- IC50 ([3]; average of three experiments, read-out: IC50 values, MDA-MB-231): 48 µM
- Effect over Rac-Tiam complex (Rac interaction with the activator) (Rac-Tiam complex): decrease of Rac interaction with the activator
- Effect over the intracellular active Rac levels (Rac-GTP) (Rac1): inhibitory effect
- Intracellular fibrillar actin levels [10]: decreasing of intracellular fibrilar actin levels
- Cell migration [11]: significantly decreased the cell migration in a dose dependent manner
- Cell population in G0-G1 phase (LN229 cells; 50 μM, LN229 synchronized in G0-G1, stimulated 24 hours with FBS, controls 25%): 60%
- Cell cycle arrest (LN229 cells; LN229 cells, FIG. 7): arrests tumoral cells in G0-G1 phase in a dose dependent manner

Further lines, results first:

- IC50 [1, 12]: 211 µM
- melting point: 108 to 109 °C
Structure (SMILES): N=C(Nc1ccccc1)Nc1ccccc1C(F)(F)F [(27), N-phenyl-N′-[2-(trifluoromethyl)phenyl]guanidine]

- IC50 [1, 12]: 88 µM
Structure (SMILES): N=C(Nc1cccc([N+](=O)[O-])c1)Nc1ccccc1C(F)(F)F [(41), N-(3-nitrophenyl)-N′-[2-(trifluoromethyl)phenyl]guanidine]
